Where two headings read alike, the source gives them in different places.
Key:
HIV-1 = HIV-1 infection of TZM-bl cells, firefly luciferase under HIV-1 LTR promoter; type: cell-based, Human immunodeficiency virus 1; settings: for validation of anti-HIV-1 hit: validation experiment; for EC50: Human immunodeficiency virus 1, TZM-bl, read-out: EC50 other
[1] = system: RVFV (rRVFVΔNSs::Katushka); assay: microbe, parasite or virus in culture; type: cell-based, Rift Valley fever virus
CHIKV-2SG-NanoLuc [2] = assay: microbe, parasite or virus in culture; type: cell-based, Chikungunya virus
CHIKV-2SG-NanoLuc [3] = assay: microbe, parasite or virus in culture; type: cell-based, Chikungunya virus; remark: listed apart in the source
RRV-2SG-NanoLuc [4] = assay: microbe, parasite or virus in culture; type: cell-based, Ross River virus
RRV-2SG-NanoLuc [5] = assay: microbe, parasite or virus in culture; type: cell-based, Ross River virus; remark: listed apart in the source
in vitro [6] = settings: human
in vitro [7] = settings: human; remark: listed apart in the source
EV1 [8] = assay: microbe, parasite or virus in culture; type: cell-based, Echovirus 1
EV1 [9] = assay: microbe, parasite or virus in culture; type: cell-based, Echovirus 1; remark: listed apart in the source
in vitro [10] = settings: human; remark: listed apart in the source
[11] = Rift Valley fever virus, A549, read-out: EC50 other

With `CN(C)c1ccc(O)c2c1C[C@H]1C[C@H]3[C@H](N(C)C)C(O)=C(C(N)=O)C(=O)[C@@]3(O)C(O)=C1C2=O` [Minocycline] as the compound, how does the “primary screen hit against HIV-1” value (HIV-1; HIV-1, TZM-bl cells) read?
The value was “anti-HIV-1 agents”.

And the “validation of anti-HIV-1 hit” value (HIV-1; HIV-1, TZM-bl cells)?
The value was “confirmed”.

And the EC50 (HIV-1)?
The EC50 was 6.84 µM.

What about the “SI (minimal selectivity index, CC50/EC50)” value [1] of the same compound?
Its value is over 11.

And the “screen hit against RVFV” value [1]?
The value was “identified”.

What about the EC50 [1, 11] of the same compound?
Its EC50 is 9.52 µM.

Which results are given for `COc1c(C)c2c(c(O)c1C/C=C(\C)CCC(=O)O)C(=O)OC2` [Mycophenolic acid]?
SI (minimal selectivity index, CC50/EC50) (CHIKV-2SG-NanoLuc [2]; CHIKV, RPE cells): >333; EC50 (CHIKV-2SG-NanoLuc [2]; Chikungunya virus, RPE, read-out: EC50 CTxG): 0.08 µM; antiviral activity in repeat experiments (CHIKV-2SG-NanoLuc [3]): confirmed antiviral activity; EC50 (CHIKV-2SG-NanoLuc [3]; Chikungunya virus, RPE, read-out: EC50 other): 0.09 µM; SI (minimal selectivity index, CC50/EC50) (RRV-2SG-NanoLuc [4]): >9; EC50 (RRV-2SG-NanoLuc [4]; Ross River virus, RPE, read-out: EC50 CTG): 3.19 µM; antiviral activity in repeat experiments (RRV-2SG-NanoLuc [5]): confirmed antiviral activity; EC50 (RRV-2SG-NanoLuc [5]; Ross River virus, RPE, read-out: EC50 other): 0.86 µM; CC50 (in vitro [6]; CC50 CTG): > 30 µM; CC50 (in vitro [6]; CC50 CTxG): > 30 µM

Which “screen hit against RVFV” value [1] does the source give for `CN[C@H](CC(C)C)C(=O)N[C@H]1C(=O)N[C@@H](CC(N)=O)C(=O)N[C@H]2C(=O)N[C@H]3C(=O)N[C@H](C(=O)N[C@H](C(=O)O)c4cc(O)cc(O)c4-c4cc3ccc4O)[C@H](O[C@H]3C[C@](C)(N)[C@@H](O)[C@H](C)O3)c3ccc(c(Cl)c3)Oc3cc2cc(c3O[C@@H]2O[C@H](CO)[C@@H](O)[C@H](O)[C@H]2O[C@H]2C[C@](C)(NCc3ccc(-c4ccc(Cl)cc4)cc3)[C@@H](O)[C@H](C)O2)Oc2ccc(cc2Cl)[C@H]1O` [Oritavancin] here?
Its value is “identified”.

And the EC50 [1, 11]?
The EC50 was 4.49 µM.

And the CC50 (in vitro [7])?
The CC50 was 75.8 µM.

For `Cc1ccc2c(c1)c1c3n2CCNC3CCC1` (centres unmarked) [Pirlindole], which “SI (minimal selectivity index, CC50/EC50)” value (EV1 [8]) is on record?
The value was 11.

And the EC50 (EV1 [8]; Enterovirus B, RPE, read-out: EC50 CTxG)?
Its EC50 is 2.71 µM.

And the “antiviral activity in repeat experiments” value (EV1 [9])?
The value was “confirmed antiviral activity”.

What about the EC50 (EV1 [9]; Enterovirus B, read-out: EC50 other) of the same compound?
The EC50 was 8.92 µM.

What about the CC50 (in vitro [6]; CC50 CTG) of the same compound?
Its CC50 is 28.5 µM.

And the CC50 (in vitro [6]; CC50 CTxG)?
The CC50 was over 30 µM.

Which results are given for `CO[C@H]1C[C@@H]2CC[C@@H](C)[C@@](O)(O2)C(=O)C(=O)N2CCCC[C@H]2C(=O)O[C@H]([C@H](C)C[C@@H]2CC[C@@H](O)[C@H](OC)C2)CC(=O)[C@H](C)/C=C(\C)[C@@H](O)[C@@H](OC)C(=O)[C@H](C)C[C@H](C)/C=C/C=C/C=C/1C` [Rapamycin]?
SI (minimal selectivity index, CC50/EC50) (HIV-1; HIV-1, TZM-bl cells): >1; primary screen hit against HIV-1 (HIV-1; HIV-1, TZM-bl cells): anti-HIV-1 agents; validation of anti-HIV-1 hit (HIV-1; HIV-1, TZM-bl cells): confirmed; EC50 (HIV-1): 18.9 µM; CC50 (in vitro [10]): > 30 µM

Which results are given for `CC(C)c1nc(CN(C)C(=O)N[C@H](C(=O)N[C@@H](Cc2ccccc2)C[C@H](O)[C@H](Cc2ccccc2)NC(=O)OCc2cncs2)C(C)C)cs1` [Ritonavir]?
screen hit against RVFV [1]: identified; EC50 [1, 11]: 26.8 µM

With `C[C@H]1c2cccc(O)c2C(=O)C2=C(O)[C@]3(O)C(=O)C(C(N)=O)=C(O)[C@@H](N(C)C)[C@@H]3[C@@H](O)[C@@H]21` [doxycycline] as the compound, how does the “screen hit against RVFV” value [1] read?
The value was “identified”.

Which “screen hit against RVFV” value [1] does the source give for `COc1cc2ncnc(Nc3ccc(F)c(Cl)c3)c2cc1OCCCN1CCOCC1` [gefitinib] here?
The value was “identified”.

With `CC[C@@]1(O)C(=O)OCc2c1cc1n(c2=O)Cc2cc3c(CN(C)C)c(O)ccc3nc2-1` [topotecan] as the compound, how does the “screen hit against RVFV” value [1] read?
Its value is “identified”.

Which “screen hit against RVFV” value [1] does the source give for Bortezamib here?
The value was “identified”.

And the EC50 ([1]; read-out: EC50 other)?
The EC50 was under 0.39 µM.

What about the CC50 (A549 cells) of the same compound?
The CC50 was over 100 µM.

— paper PMC7113852 (Antiviral Research, 2018)
